Test [1] has as its system Trichophyton rubrum KD-1130. Kind of test: Antifungal activity evaluation test: minimum inhibitory concentration (MIC), broth dilution by reference to CLSI M38-A2. It is filed as cell-based. Particulars: KD1130, read-out: MIC (T. rubrum). The method, boiled down: (§1)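 MIC read visually as lowest concentration inhibiting growth by at least 80% relative to control after 4 days at 35° C. Trichophyton strains inoculated at 2×10^3 cells/mL final in MOPS-buffered RPMI 1640 (pH 7.0); compounds as 2-fold DMSO series, CLSI M38-A2 basis.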
(In general: Broth dilution looks for growth in wells or tubes with falling amounts of substance.)

The subject of test [2] is Trichophyton mentagrophytes SM-110. The description is as above. It is filed as cell-based. Particulars: SM110, read-out: MIC (T. menta.). The method, boiled down: as §1

Molecules are shown by their SMILES. Converted amounts (≈) assume the structure as drawn.

For orientation: MIC means the lowest concentration found to suppress growth. As for `Cc1ccncc1-c1cccnc1Oc1ccc(I)cc1` [I-426], the minimum inhibitory concentration (MIC) in test [1] and in test [2] was at most 0.1 mg/L in each case.

For `Cc1cnc(-c2ccc(Oc3ncccc3-c3cnccc3C)cc2)s1` [I-428], the MIC in test [1] and in test [2] was at most 0.1 mg/L each time.

For `Cc1ccncc1-c1cccnc1Oc1ccc(-c2ncccn2)cc1` [I-429], the MIC in test [1] and in test [2] was at most 0.1 mg/L each time.

Consider `Cc1ccncc1-c1cccnc1Oc1ccc(-c2ccncc2)cc1` [I-430], for which the MIC in test [1] and in test [2] was at most 0.1 mg/L in each case.

With `Cc1ccncc1-c1cccnc1Oc1ccc(-c2ccccn2)cc1` [I-431], the minimum inhibitory concentration (MIC) in test [1] and in test [2] was at most 0.1 mg/L each time.

`Cc1cnn(-c2ccc(Oc3ncccc3-c3cnccc3C)cc2)c1` [I-432]: the minimum inhibitory concentration (MIC) in test [1] and in test [2] was at most 0.1 mg/L throughout.

`Cc1ccncc1-c1cccnc1Oc1ccc(-n2cccn2)cc1` [I-433]: the MIC in test [1] and in test [2] was at most 0.1 mg/L in each case.

On to `COc1ncccc1-c1cccnc1Oc1ccc(C(F)(F)CO)cc1` [I-434], for which the MIC in test [1] was in the range of 1.56 to 6.25 mg/L (≈ 4.35 to 17.4 µM); in test [2], 0.2 to 0.78 mg/L (≈ 0.558 to 2.18 µM).

With `COc1ncccc1-c1cccnc1Sc1ccc(C(F)(F)F)cc1` [I-435], the MIC in test [1] and in test [2] was 0.2 to 0.78 mg/L (≈ 0.552 to 2.15 µM) throughout.

With `COc1ccccc1-c1cccnc1Sc1ccc(C(F)(F)F)cc1` [I-436, 3-(2-methoxyphenyl)-2-{[4-(trifluoromethyl)phenyl]thio}pyridine], the MIC in test [1] and in test [2] was at most 0.1 mg/L in each case.

With `COc1ccccc1-c1cccnc1Cc1ccc(C(F)(F)F)cc1` [I-439, 3-(2-methoxyphenyl)-2-[4-(trifluoromethyl)benzyl]pyridine], the MIC in test [1] and in test [2] was 0.2 to 0.78 mg/L (≈ 0.582 to 2.27 µM) throughout.

Consider `COc1cccc(Cl)c1-c1cccnc1Cc1ccc(C(F)(F)F)nc1` [I-441], for which the minimal inhibitory concentration (MIC) in test [1] and in test [2] was at most 0.1 mg/L throughout.

On to `COc1ncccc1-c1cccnc1Oc1ccc(C(F)F)cc1` [I-443], for which the MIC in test [1] and in test [2] was at most 0.1 mg/L throughout.

Turning to `COc1ccccc1-c1cccnc1Oc1ccc(C(F)F)cc1` [I-444], the MIC in test [1] and in test [2] was at most 0.1 mg/L throughout.

Regarding `COc1ccccc1-c1cccnc1Oc1ccc(OC(F)F)cc1` [I-445], the MIC in test [1] and in test [2] was at most 0.1 mg/L each time.

As to `COc1ncccc1-c1cccnc1Oc1ccc(OC(F)F)cc1` [I-446], the MIC in test [1] and in test [2] was at most 0.1 mg/L throughout.

As to `COc1ncccc1-c1cccnc1Oc1ccc(C(C)C)cc1` [I-447], the MIC in test [1] and in test [2] was at most 0.1 mg/L in each case.

Regarding `Cc1cc(Oc2ncccc2-c2cccc3c2OCC3)cnc1C(F)(F)F` [I-448], the MIC in test [1] and in test [2] was at most 0.1 mg/L in each case.

Take `CCCN(C)c1ncc(Oc2ncccc2-c2cccc3c2OCC3)cn1` [I-449]: the MIC in test [1] and in test [2] was at most 0.1 mg/L throughout.

Turning to `COCCN(C)c1ncc(Oc2ncccc2-c2cccc3c2OCC3)cn1` [I-450], the MIC in test [1] and in test [2] was at most 0.1 mg/L in each case.

`COCC(F)(F)c1ccc(Oc2ncccc2-c2cc(Cl)cnc2OC)cn1` [I-451]: the MIC in test [1] and in test [2] was at most 0.1 mg/L each time.

Consider `CCCN(C)c1ncc(Oc2ncccc2-c2cc(Cl)cnc2OC)cn1` [I-452], for which the MIC in test [1] and in test [2] was at most 0.1 mg/L throughout.

Consider `C=C(C)c1ccc(Oc2ncccc2-c2ccccc2OC)cn1` [I-453], for which the minimal inhibitory concentration (MIC) in test [1] and in test [2] was at most 0.1 mg/L each time.

With `COc1cc(F)ccc1-c1cccnc1Oc1cnc(Br)c(C)c1` [I-454], the minimum inhibitory concentration (MIC) in test [1] and in test [2] was at most 0.1 mg/L each time.

Regarding `COc1ccccc1-c1cccnc1Oc1ccc(C(F)F)c(C)c1` [I-455], the minimum inhibitory concentration (MIC) in test [1] and in test [2] was at most 0.1 mg/L each time.

As to `COc1ncccc1-c1cccnc1Oc1ccc(C(F)F)c(C)c1` [I-456], the MIC in test [1] and in test [2] was at most 0.1 mg/L throughout.

`COc1ncncc1-c1cccnc1Oc1ccc(C(F)F)c(C)c1` [I-457]: the MIC in test [1] and in test [2] was at most 0.1 mg/L throughout.

These data come from patent publication US10647675B2 (priority 2015, dated 2020).
